Data from publication PMC8289695 (Cell Reports, 2021).

Test system: SARS-CoV-2
Type: cell-based, strain USA_WA1/2020
Conditions: for time of addition: single treatment 1 h prior to infection, compound removed prior to infection: VPS34-IN1 and PIK-III at 5 μM

## Nc1ncc(-c2ccnc(Nc3ccncc3)n2)c(CC2CC2)n1 [PIK-III]
  time of addition: single treatment 1 h prior to infection, compound removed prior to infection: inhibited SARS-CoV-2 replication

## CCC/C=C/C/C=C/C=C/C=N/NN=O [triacsin C]
  time of addition: dosing at 2 hpi or 4 hpi: remained inhibitory
  time of addition: single treatment 1 h prior to infection, compound removed prior to infection: minimal efficacy

## CCCCCCCCCCC[C@@H](C[C@@H]1OC(=O)[C@H]1CCCCCC)OC(=O)[C@H](CC(C)C)NC=O [orlistat]
  time of addition: dosing at 2 hpi or 4 hpi: remained inhibitory
  time of addition: single treatment 1 h prior to infection, compound removed prior to infection: minimal efficacy

## CC(C)(O)CNc1ncc(-c2ccnc(Nc3ccnc(Cl)c3)n2)c(CC2CC2)n1 [VPS34-IN1]
  time of addition: single treatment 1 h prior to infection, compound removed prior to infection: inhibited SARS-CoV-2 replication
